These are literature values, as cited in patent publication US6670356B2, “Analogs of galanthamine and lycoramine as modulators of nicotinic receptors” (priority 1999, dated 2003).

Data set [1] has as its system nicotinic receptors of PC12 cells.
For data set [2], the system named is superior cervical ganglion. The following applies: cat.

Take `COc1ccc2c3c1O[C@H]1[C@@H](O)C=C[C@H]4[C@@H](C2)N(C)CC[C@@]341` [codeine]: the Whole-cell currents evoked result in data set [1] (PC12 cells) is recorded as “do not evoke sizable whole-cell currents”.

Regarding `COc1ccc2c3c1O[C@H]1C[C@@H](O)C=C[C@@]31CCN(C)C2` [galanthamine], the “Twitch potentiating effects relative to neostigmine or physostigmine” value with gastrocnemius (nerve muscle preparation, quoted from the cited authors' discussion) is 1/10. The “Twitch potentiation relative to neostigmine or physostigmine” value in the data set on gastrocnemius (quoted from the cited authors) was 1/10. The “Anticholinesterase activity relative to neostigmine or physostigmine” value in the data set on cholinesterase (quoted from the cited authors' discussion) is reported as 1/100. Further, the “Preservation of the ganglionic surface potential” value in data set [2] (direct recordings, treated ganglia) is on record as “preservation of the surface potential is shown”. Also, the “Inhibition of hexamethonium (C6) induced ganglionic blockade” value in data set [2] (intra-arterially, 250 micrograms) was “substantially inhibited”. For the same compound, in data set [1] (PC12 cells), the “Mode of action at nicotinic receptors” value was “noncompetitive agonists”, the “Single channel activity after incubation with FK1 (competitive monoclonal antibody to physostigmine)” value is on record as “neither physostigmine nor galanthamine could induce” and the Whole-cell currents evoked entry was “do not evoke sizable whole-cell currents”. The Channel activation result in data set [1] (inside-out patches from PC 12 cells) was “cause some channel activation”.

With `CN(C)C(=O)Oc1cccc([N+](C)(C)C)c1` [neostigmine], the “IC 50 for cholinesterase inhibition, times lower than for galanthamine” value at cholinesterase (rat brain, erythrocytes, or gastrocnemius homogenate) was ~200 times lower.
